The test system of test [1] is CHIKV strain of La Réunion outbreak (LR2006-OPY1) with GFP modification in 5′. Briefly: microbe, parasite or virus in culture. The test is classed as cell-based, Chikungunya virus. The note with it: infected HEK293T cells; for inhibition at 1 µM: Chikungunya virus, HEK-293T, compounds at 1 μM, MOI 0.1, 22 h, values above 100 lowered to 100, read-out: % CHIKV Inhibition Mean (n = 2). On the procedure:
The ability of the compounds to inhibit viral replication was assessed with an experiment in which infected cells were treated by compounds of formula (Ic) at 1 μM. As a positive control for inhibition of Chikungunya, Ribavirin was used. Toxicity of the compounds was assessed in parallel.
Human embryonic kidney cells 293T (HEK293T, CRL-11268) were maintained in Dulbecco's modified Eagle's Medium (DMEM, 31966-021, Thermo Fisher Scientific) supplemented with 10% of fetal bovine serum (FBS), penicillin and streptomycin. After removal of the medium, cells were washed with Ca^2+ and Mg^2+-free salt solution to remove all traces of serum. After aspiration of wash solution, cells were dissociated with 0.25% Trypsin-EDTA solution and incubated 30 s at least in 37° C. incubator. Concentration of cell suspension was determined by an automatic cell counter (EVE, NanoEntek) and, if needed, adjusted to 0.33×10^6 cells/mL with DMEM medium supplemented with 10% FBS.
100 μL of the cell suspension were dispatched in a ViewPlate-96 Black (6005182, PerkinElmer) and in a transparent 96-well cell culture plate (655180, Greiner bio-one). After an incubation for 24 h at 37° C. under 5% of CO2, compounds were added at the proper concentration.
An intermediate dilution was prepared with DMSO (D8418, Sigma) at 2 mM in a 96-well V-bottom microplate from the stock solution:
An intermediate dilution was prepared with DMSO (D8418, Sigma) at 25 mM in a 96-well V-bottom microplate from the stock solution:
Perform serial dilution in 2 μL of DMSO 13 times to reach 0.0015 mM. Proceed as follows in table III:
For both screen and determination of IC50, 1 μL of each solution was added in a 1 mL Masterblock 96 wells (Greiner bio-one, 780261) containing 1 mL of DMEM medium. As a positive control, 5 μL of a 80 mM Ribavirin solution (R9644, Sigma) is added to 1 mL of DMEM. On the other hand, DMSO is used as a negative control.
[…]. Vector Borne Zoonotic Dis. 2006; 6 (4)). This modified virus was used to infect cells at MOI 0.1. […].
Medium was removed after 22 h at 37° C. under 5% of CO2 and cells were washed as described above. 60 μL of RIPA buffer (50 mM Tris-HCl pH8, 100 mM NaCl, 1 mM MgCl2, 1% Triton X-100) was added to cells and incubated for at least 20 min before reading fluorescence signal. Pierce 660 nm Protein Assay Reagent (22660, Thermo scientific) was used to normalize fluorescence signal by protein quantity.
• A first round of experiments has been performed wherein the results are expressed as inhibition percentage, which is calculated as follows, through the following steps: • 1. Fluorescence intensity (FI)/Absorbance 660 nm (A660)=A • This ratio allows considering the infection (GFP virus) to the protein amount. • 2. A′=A−background noise of non-infected plate, • 3. B=Fluorescence intensity (FI)/Absorbance 660 nm (A660) of infected but non treated plates, • 4. C=A′/B, which is then converted as the percentage of infection after treatment, compared to non-treated sample, and subsequently as the infection percentage. For instance, a value of 100 in Table IV here below means that, after treatment, the signal attributed to GFP fluorescence is abolished, which is correlated to the absence of infection. • 5. C′=100-C
This value corresponds to the inhibition's percentage.
The following Table IV encompasses said C′ value for some compounds, as calculated above with a mean of 2 experiments, and corresponding standard deviation.
Some values were originally above 100. In these cases, the value has been lowered to 100. This means that some molecules also have an impact on the viability of the cells. In other words, the A value may be lower than the background noise.
Moreover, for each measure, the test was performed with Ribavirin as control. The value of the inhibition percentage was checked, giving 100%.

For the next test, the system named is RSV A2. Briefly: RSV inhibition (cytopathic effect) in HEp-2 cells using Viral ToxGlo assay. The note with it: human respiratory syncytial virus; RSV A2, HEp-2 cells, MOI 0.5, 72 h p.i. The test is classed as cell-based. In outline:
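HEp-2 cells seeded overnight, then given compounds (≤1% DMSO final) in 2% FBS EMEM and infected right away with RSV A2 at MOI 0.5; uninfected wells used for cytotoxicity. After 72 h p.i. at 37 °C/5% CO2, cytopathic effect read by Viral ToxGlo luminescence after 20 min at room temperature.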

Broadly, the inhibition is the relative decrease from the control value, in per cent. The EC50 is the concentration that produces a half-maximal response.

On to `Cc1cc(C(=O)N=C2NCCCN2)ccc1Nc1cccc(C(=O)NCCC2CCCC2)c1` [compound 28, 4-((3-((2-cyclopentylethyl)carbamoyl)phenyl)amino)-3-methyl-N-(tetrahydropyrimidin-2(1H)-ylidene)benzamide], for which the inhibition at 1 µM in test [1] was 97%. For the same compound, the EC50 in the test with RSV A2 came to 308 nM.

For the compound `Cc1cc(C(=O)N=C2NCCCN2)ccc1Nc1cccc(C(=O)NCCC(C)C)c1` [compound 27, 4-((3-(isopentylcarbamoyl)phenyl)amino)-3-methyl-N-(tetrahydropyrimidin-2(1H)-ylidene)benzamide], in test [1], the inhibition at 1 µM was 96%. In addition, the half-maximal effective concentration (EC50) in the test with RSV A2 is 365 nM.

Consider `NC(=O)c1ncn([C@@H]2O[C@H](CO)[C@@H](O)[C@H]2O)n1` [Ribavirin, reference compound], for which the “inhibition percentage (Ribavirin positive control)” value in test [1] (Ribavirin as control in each measure) came to 100%.
